Results on eleven compounds are retold here after patent US5486516A, “Furopyrimidine derivatives” (DowElanco, priority 1993, dated 1996).

The test system of data set [1] is Pyricularia oryzae (rice blast). The data set can be described thus: whole plant or invertebrate. The data set is classed as in vivo. The settings on record: foliar, read-out: RICE BLAST control rating.
For data set [2], the system named is Southern corn rootworm (Diabrotica undecimpuctata howardi Barber). The data set can be described thus: Mite/insect screen, corn rootworm. The data set is classed as in vivo. The settings on record: soil; for mortality at 12 ppm / mortality at 24 ppm: Diabrotica, read-out: CRW results (percent mortality); for mortality at 12 ppm: CRW rate 12.00 ppm. Put shortly: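 Compound in acetone/alcohol with emulsifiers, diluted with water; 1 mL applied to 15 g dry sandy soil holding a presoaked corn seed. After 6–12 h drying, five 2-3 instar larvae added, held at 23° C; percent mortality and phytotoxicity scored after standard exposure periods.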

In data set [3] the test system is southern armyworm (Spodopetra eridania Cramer). The data set is described as follows: Mite/insect screen, Southern armyworm. The class given is in vivo. The settings on record: sprayed leaves; for mortality at 200 ppm / mortality at 400 ppm: Spodoptera eridania, read-out: SAW results (percent mortality); for mortality at 200 ppm: rate 200 ppm. Summed up: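 Compounds in acetone/alcohol with Toximul emulsifiers, diluted in water, sprayed to runoff on squash leaves at 10 psi and dried 1 h. Excised treated leaves fed to southern armyworm larvae in Petri dishes; percent mortality scored after standard exposure.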

The test system of data set [4] is Twospotted spider mites (Tetranychus urticae Koch). The data set can be described thus: Mite/insect screen, twospotted spider mites. The settings on record: sprayed leaves; for mortality at 200 ppm / mortality at 400 ppm: Tetranychus urticae, read-out: SM results (percent mortality); for mortality at 200 ppm: rate 200 ppm. The class given is in vivo. Summed up: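 Squash cotyledons infested with mites were sprayed to runoff at 10 psi with compound in acetone/alcohol plus emulsifiers, diluted in water to the stated concentrations. Percent mortality and phytotoxicity were scored after standard exposure periods.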

Data set [5] relates to melon aphids (Aphis gossvpii Glover). The data set is described as follows: Mite/insect screen, melon aphids. The data set is classed as in vivo. As to conditions: sprayed leaves; for mortality at 200 ppm / mortality at 400 ppm: Aphis, read-out: MA results (percent mortality); for mortality at 200 ppm: rate 200 ppm. Summed up:
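Aphids established on squash cotyledons were sprayed to runoff with compound in acetone/alcohol with sulfonate/nonionic emulsifiers, diluted in water to test concentrations. Leaves dried 1 h. Percent mortality scored after standard exposure periods.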

Data set [6] has as its system Puccinia recondita tritici (leaf rust). The data set is described as follows: Plant pathology screen (Test 1), leaf rust on wheat. As to conditions: in Triticum aestivum, foliar, read-out: LEAF RUST control rating.
For data set [7], the system named is Pseudoperonospora cubensis (downy mildew). The data set can be described thus: Plant pathology screen (Test 1), downy mildew on squash. As to conditions: foliar, read-out: DOWN MDEW control rating.
Description: The test compounds were formulated for application by dissolving 50 mg of the compound into 1.25 ml of solvent. The solvent was prepared by mixing 50 ml of "Tween 20" (polyoxyethylene (20) sorbitan monolaurate emulsifier) with 475 ml of acetone and 475 ml of ethanol. The solvent/compound solution was diluted to 125 ml with deionized water. The resulting formulation contains 400 ppm test chemical. Lower concentrations were obtained by serial dilution with the solvent-surfactant mixture.
The formulated test compounds were applied by foliar spray. The following plant pathogens and their corresponding plants were employed.
The formulated technical compounds were sprayed on all foliar surfaces of the host plants (or cut berry) to past run-off. Single pots of each host plant were placed on raised, revolving pedestals in a fume hood. Test solutions were sprayed on all foliar surfaces. All treatments were allowed to dry and the plants were inoculated with the appropriate pathogens within 2-4 hours.
The effectiveness of test compounds in controlling disease was rated using the following scale.
Data set [8] has as its system Erysiphe graminis tritici (powdery mildew). The data set can be described thus: Plant pathology screen (Test 1), powdery mildew on wheat. The settings on record: Blumeria graminis, in Triticum aestivum, foliar, read-out: POWD MDEW control rating.
Data set [9] concerns Botrytis cinerea (gray mold). The data set can be described thus: Plant pathology screen (Test 1), gray mold on grape berries. The settings on record: read-out: GRAY MOLD control rating.

Broadly, the mortality is the share of the test organisms that died. Turning to `COc1ccc(CCNc2ncnc3occ(C)c23)cc1OC` [Example 27, N-[2-(3,4-dimethoxyphenyl)ethyl]-5-methylfuro[2,3-d]pyrimidin-4-amine], the pest or weed control at 400 µg/mL lay in the range of 0 to 19% in data set [1]; 90 to 100% in data set [6]; 90 to 100% in data set [7]; 0 to 19% in [8]; 0 to 19% in data set [9]. For the same compound, the mortality at 12 ppm in data set [2] was determined as 0%. Also, the mortality at 24 ppm in data set [2] (CRW rate 24.00 ppm) came out at 0%. The mortality at 200 ppm in data set [3], in [4] and in data set [5] was 0% in each case. Also, the mortality at 400 ppm in data set [3] (rate 400 ppm), in [4] (rate 400 ppm) and in data set [5] (rate 400 ppm) was 0% throughout.
For the compound `Cc1cc2c(OCCc3ccc(C(F)(F)F)cc3)ncnc2o1` [Example 42, 6-methyl-4-[2-[4-(trifluoromethyl)phenyl]ethoxy]furo[2,3-d]pyrimidine], the pest or weed control at 400 µg/mL in [1] fell in the range of 20 to 89%; in data set [6], 90 to 100%; in [7] it was 90 to 100%; in data set [8] it was 20 to 89%; in data set [9] it was 0 to 19%. In [2], the mortality at 12 ppm is 0%. Also, the mortality at 24 ppm in data set [2] (CRW rate 24.00 ppm) came to 0%. For the same compound, the figures for the mortality at 200 ppm in data set [3], in data set [4] and in data set [5] were 0%, 0% and 100%, respectively. Further, the figures for the mortality at 400 ppm in data set [3] (rate 400 ppm), in [4] (rate 400 ppm) and in data set [5] (rate 400 ppm) were 0%, 100% and 100%, respectively.
On to `Cc1cc2c(OCCC34CC5CC(CC(C5)C3)C4)ncnc2o1` [Example 38, 6-methyl-4-[2-(1-adamantyl)ethoxy]furo[2,3-d]pyrimidine], for which the pest or weed control at 400 µg/mL in [1], in [6], in data set [7], in data set [8] and in data set [9] was 0 to 19% in each case. For the same compound, in data set [2], the mortality at 12 ppm is 0%. In [2] (CRW rate 24.00 ppm), the mortality at 24 ppm worked out at 0%. Besides, the mortality at 200 ppm in data set [3], in data set [4] and in data set [5] was 0% throughout. The mortality at 400 ppm in data set [3] (rate 400 ppm), in data set [4] (rate 400 ppm) and in data set [5] (rate 400 ppm) was 0% each time.
`Cc1ccc(Oc2ncnc3oc(C)c(C)c23)cc1` [Example 62, 5,6-dimethyl-4-(4-methylphenoxy)furo[2,3-d]pyrimidine]: the pest or weed control at 400 µg/mL in data set [1] was 0 to 19%; in data set [6], 0 to 19%; in [7] it was 0 to 19%; in [8], 90 to 100%; in data set [9], 0 to 19%. The mortality at 12 ppm in [2] is 0%. Moreover, the mortality at 24 ppm in [2] (CRW rate 24.00 ppm) was determined as 0%. Also, the mortality at 200 ppm in [3], in [4] and in data set [5] was 0% each time. Also, the mortality at 400 ppm in [3] (rate 400 ppm), in [4] (rate 400 ppm) and in data set [5] (rate 400 ppm) was 0% in each case.
Regarding `Cc1oc2ncnc(OCCc3ccc(C(C)(C)C)cc3)c2c1C` [Example 50, 4-[2-[4-(t-butyl)phenyl]ethoxy]-5,6-dimethylfuro[2,3-d]pyrimidine], the pest or weed control at 400 µg/mL was in the range of 20 to 89% in [1]; 20 to 89% in data set [6]; 20 to 89% in data set [7]; 20 to 89% in data set [8]; 0 to 19% in data set [9]. Also, the mortality at 12 ppm in [2] is 0%. Also, the mortality at 24 ppm in [2] (CRW rate 24.00 ppm) is 0%. The mortality at 200 ppm in data set [3], in data set [4] and in data set [5] was 0% each time. The mortality at 400 ppm in data set [3] (rate 400 ppm) amounted to 0%; in data set [4] (rate 400 ppm) it was 100%; in data set [5] (rate 400 ppm), 100%.
In the case of `Cc1oc2ncnc(NCCc3ccccc3)c2c1C` [Example 12, 5,6-dimethyl-N-(2-phenylethyl)furo[2,3-d]pyrimidin-4-amine], the pest or weed control at 400 µg/mL in data set [1] was in the range of 20 to 89%; in [6] it was 90 to 100%; in data set [7], 90 to 100%; in data set [8], 0 to 19%; in data set [9] it was 0 to 19%. Moreover, in data set [2], the mortality at 12 ppm came to 0%. Moreover, the mortality at 24 ppm in [2] (CRW rate 24.00 ppm) was determined as 0%. Further, the mortality at 200 ppm in [3], in data set [4] and in data set [5] was 0% each time. For the same compound, the mortality at 400 ppm in data set [3] (rate 400 ppm), in data set [4] (rate 400 ppm) and in data set [5] (rate 400 ppm) was 0% each time.
For `Cc1cc2c(NCCc3ccc(Cl)cc3)ncnc2o1` [Example 6, 6-methyl-N-[2-(4-chlorophenyl)ethyl]furo(2,3-d]pyrimidin-4-amine], the pest or weed control at 400 µg/mL in data set [1], in data set [6], in data set [7], in [8] and in data set [9] was 0 to 19% each time. The mortality at 12 ppm in data set [2] stood at 0%. In data set [2] (CRW rate 24.00 ppm), the mortality at 24 ppm is 0%. The mortality at 200 ppm in data set [3], in data set [4] and in data set [5] was 0% throughout. In addition, the mortality at 400 ppm in [3] (rate 400 ppm), in data set [4] (rate 400 ppm) and in data set [5] (rate 400 ppm) was 0% each time.
With `CCCC(C)(CC)Oc1ccc(CCOc2ncnc3oc(C)c(C)c23)cc1` (stereo not shown) [Example 74, 5,6-dimethyl-4-[2-[4-(1-ethyl-1-methylbutoxy)phenyl]ethoxy]furo[2,3-d]pyrimidine], the pest or weed control at 400 µg/mL in data set [1] lay within 0 to 19%; in data set [6], 0 to 19%; in data set [7] it was 20 to 89%; in data set [8], 0 to 19%; in [9], 0 to 19%. Besides, the mortality at 24 ppm in data set [2] (CRW rate 24.00 ppm) stood at 0%. In addition, the mortality at 400 ppm was found to be 0% in data set [3] (rate 400 ppm), 100% in data set [4] (rate 400 ppm) and 90% in [5] (rate 400 ppm).
Consider `Cc1oc2ncnc(Oc3cccc(C(F)(F)F)c3)c2c1C` [Example 63, 5,6-dimethyl-4-[3-(trifluoromethyl)phenoxy]furo[2,3-d]pyrimidine], for which the pest or weed control at 400 µg/mL was in the range of 0 to 19% in data set [1]; 0 to 19% in [6]; 20 to 89% in [7]; 0 to 19% in [8]; 0 to 19% in [9]. The mortality at 12 ppm in [2] came to 0%. Moreover, the mortality at 24 ppm in data set [2] (CRW rate 24.00 ppm) came to 0%. In addition, the mortality at 200 ppm in data set [3], in data set [4] and in [5] was 0% throughout. For the same compound, the mortality at 400 ppm in [3] (rate 400 ppm) is 0%; in data set [4] (rate 400 ppm), 50%; in data set [5] (rate 400 ppm) it was 80%.
On to `COc1ccc(Oc2ncnc3oc(C)c(C)c23)cc1` [Example 65, 5,6-dimethyl-4-(4-methoxyphenoxy)furo[2,3-d]pyrimidine], for which the pest or weed control at 400 µg/mL in data set [1] was 0 to 19%; in data set [6], 0 to 19%; in [7] it was 0 to 19%; in data set [8] it was 20 to 89%; in data set [9] it was 0 to 19%. Besides, in [2], the mortality at 12 ppm was determined as 0%. In data set [2] (CRW rate 24.00 ppm), the mortality at 24 ppm was 0%. Further, the mortality at 200 ppm in [3], in [4] and in data set [5] was 0% each time. For the same compound, the mortality at 400 ppm in data set [3] (rate 400 ppm), in [4] (rate 400 ppm) and in data set [5] (rate 400 ppm) was 0% in each case.
`Cc1oc2ncn(CCc3cccc(C(F)(F)F)c3)c(=N)c2c1C` [Example 81, 3-[2-[3-(trifluoromethyl)phenyl]ethyl]-5,6-dimethylfuro[2,3-d]pyrimidin-4(3H)-imine]: the pest or weed control at 400 µg/mL in [1] was in the range of 90 to 100%; in data set [6], 90 to 100%; in [7], 90 to 100%; in data set [8] it was 20 to 89%; in [9], 0 to 19%. For the same compound, the “CRW results (percent mortality)” value in data set [2] (CRW rate 24.00 ppm) is 0%. In addition, the mortality at 24 ppm in data set [2] (CRW rate 24.00 ppm) was determined as 0%. The mortality at 400 ppm in [3] (rate 400 ppm), in [4] (rate 400 ppm) and in [5] (rate 400 ppm) was 0% throughout. Also, the “SAW results (percent mortality)” value in data set [3] (rate 400 ppm) is recorded as 0%. The “SM results (percent mortality)” value in data set [4] (rate 400 ppm) was determined as 0%. For the same compound, the “MA results (percent mortality)” value in data set [5] (rate 400 ppm) came out at 0%.
